In US8173813B2, “Quinolone and tetrahydroquinolone and related compounds having NOS inhibitory activity” (NeurAxon, Inc., priority 2007, dated 2012):
pIC50: −log10 of the molar value. Several values for one entry are separate records, joined by “and”; a condition that tells them apart may be missing. Equal entries are not always repeated. Structures can show the parent of a compound that is named as a salt. Where two headings read alike, the source gives them in different places.

Key:
Type in all cases: biochemical
[1] = target: Nitric oxide synthase (neuronal, human recombinant) nNOS (Homo sapiens, UniProt P29475); assay: Human nNOS enzyme assay ([3H]L-arginine to [3H]L-citrulline); details: for Selectivity eNOS/nNOS: human enzymes, ratio of eNOS IC50 to nNOS IC50; for pIC50: read-out: hnNOS IC50
Nitric oxide synthase (neuronal, human recombinant) nNOS, sequence (P29475 whole entry): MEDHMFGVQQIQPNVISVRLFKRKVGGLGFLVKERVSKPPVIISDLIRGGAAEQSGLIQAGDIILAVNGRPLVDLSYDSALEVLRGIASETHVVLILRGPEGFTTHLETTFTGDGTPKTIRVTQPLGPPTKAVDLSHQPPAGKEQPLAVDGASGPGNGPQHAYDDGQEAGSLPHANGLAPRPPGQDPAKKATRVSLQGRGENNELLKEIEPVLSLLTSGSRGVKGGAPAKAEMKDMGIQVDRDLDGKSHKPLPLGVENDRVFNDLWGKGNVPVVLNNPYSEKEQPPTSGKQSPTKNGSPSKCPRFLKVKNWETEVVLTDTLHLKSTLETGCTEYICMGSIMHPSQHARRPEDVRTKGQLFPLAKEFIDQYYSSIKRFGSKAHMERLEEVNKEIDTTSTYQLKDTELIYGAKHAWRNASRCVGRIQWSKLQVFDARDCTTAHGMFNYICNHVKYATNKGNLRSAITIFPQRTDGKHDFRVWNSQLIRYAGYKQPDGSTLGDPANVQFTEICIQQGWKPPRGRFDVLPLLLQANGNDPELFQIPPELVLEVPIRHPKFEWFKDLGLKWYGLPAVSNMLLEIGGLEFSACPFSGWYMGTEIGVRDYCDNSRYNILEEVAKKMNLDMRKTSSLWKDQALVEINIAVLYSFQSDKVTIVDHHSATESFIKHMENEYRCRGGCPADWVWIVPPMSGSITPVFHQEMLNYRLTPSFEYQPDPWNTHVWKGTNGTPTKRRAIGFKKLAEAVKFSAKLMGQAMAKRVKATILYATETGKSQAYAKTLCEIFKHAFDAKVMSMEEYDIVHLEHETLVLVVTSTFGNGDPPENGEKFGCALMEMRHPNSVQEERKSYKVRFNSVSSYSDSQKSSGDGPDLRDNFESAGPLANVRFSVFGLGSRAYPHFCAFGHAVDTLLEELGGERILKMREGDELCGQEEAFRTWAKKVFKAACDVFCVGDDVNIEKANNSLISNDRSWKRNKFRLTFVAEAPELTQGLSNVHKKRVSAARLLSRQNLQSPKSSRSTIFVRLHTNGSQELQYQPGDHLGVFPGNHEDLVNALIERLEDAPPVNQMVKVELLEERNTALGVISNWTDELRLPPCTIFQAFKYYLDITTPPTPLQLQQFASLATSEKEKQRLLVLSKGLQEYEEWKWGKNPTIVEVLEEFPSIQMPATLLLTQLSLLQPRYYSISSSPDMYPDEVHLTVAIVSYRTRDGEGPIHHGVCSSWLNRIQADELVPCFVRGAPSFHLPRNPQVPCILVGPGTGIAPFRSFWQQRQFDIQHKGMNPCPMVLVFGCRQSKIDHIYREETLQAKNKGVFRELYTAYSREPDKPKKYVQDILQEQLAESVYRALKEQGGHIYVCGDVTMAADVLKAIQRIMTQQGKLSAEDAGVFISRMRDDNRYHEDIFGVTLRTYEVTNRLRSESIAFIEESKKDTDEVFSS

eNOS (Rat) = eNOS (Rat) (Rattus norvegicus, UniProt Q62600); assay: eNOS (Rat) enzyme assay; details: values in parentheses, read-out: eNOS IC50 (rodent data in parentheses)
eNOS (Rat), sequence (Q62600 2-1202): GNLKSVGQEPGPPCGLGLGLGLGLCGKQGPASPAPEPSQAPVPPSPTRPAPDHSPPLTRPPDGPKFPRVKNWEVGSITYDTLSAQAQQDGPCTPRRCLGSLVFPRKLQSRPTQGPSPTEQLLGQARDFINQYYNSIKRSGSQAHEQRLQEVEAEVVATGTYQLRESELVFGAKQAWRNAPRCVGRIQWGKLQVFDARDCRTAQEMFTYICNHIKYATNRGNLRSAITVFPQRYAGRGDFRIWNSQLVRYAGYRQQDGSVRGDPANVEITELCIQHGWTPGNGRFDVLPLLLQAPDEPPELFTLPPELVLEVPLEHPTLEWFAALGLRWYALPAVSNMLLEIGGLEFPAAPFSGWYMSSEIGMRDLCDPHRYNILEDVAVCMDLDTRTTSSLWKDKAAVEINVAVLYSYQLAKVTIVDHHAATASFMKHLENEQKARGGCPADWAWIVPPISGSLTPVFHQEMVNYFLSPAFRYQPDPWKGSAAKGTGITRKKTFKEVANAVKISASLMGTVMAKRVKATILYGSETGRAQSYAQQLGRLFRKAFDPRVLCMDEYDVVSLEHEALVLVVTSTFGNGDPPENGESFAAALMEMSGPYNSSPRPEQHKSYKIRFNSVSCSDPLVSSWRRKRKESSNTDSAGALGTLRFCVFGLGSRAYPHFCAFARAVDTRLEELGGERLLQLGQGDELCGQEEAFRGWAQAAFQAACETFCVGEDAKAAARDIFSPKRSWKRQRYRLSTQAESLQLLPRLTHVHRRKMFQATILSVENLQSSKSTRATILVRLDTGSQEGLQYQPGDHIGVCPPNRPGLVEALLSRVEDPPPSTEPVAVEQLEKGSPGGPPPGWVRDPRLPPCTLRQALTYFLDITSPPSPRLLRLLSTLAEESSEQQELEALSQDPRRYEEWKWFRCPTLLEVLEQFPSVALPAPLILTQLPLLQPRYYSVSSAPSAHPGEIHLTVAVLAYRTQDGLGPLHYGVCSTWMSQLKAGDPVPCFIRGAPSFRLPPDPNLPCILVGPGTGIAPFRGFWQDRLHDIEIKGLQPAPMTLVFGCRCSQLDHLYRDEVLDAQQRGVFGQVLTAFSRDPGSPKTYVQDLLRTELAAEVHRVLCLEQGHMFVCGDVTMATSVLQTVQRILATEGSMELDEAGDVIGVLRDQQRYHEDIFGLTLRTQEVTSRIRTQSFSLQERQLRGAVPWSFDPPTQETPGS

iNOS (Mouse) = iNOS (Mouse) (Mus musculus, UniProt P29477); assay: iNOS (Mouse) enzyme assay; details: values in parentheses, read-out: iNOS IC50 (rodent data in parentheses)
Procedure: (§1) nNOS (Rat), eNOS (Rat) and iNOS (Mouse) Enzyme Assay Recombinant rat or mouse NO synthases (iNOS, eNOS, nNOS) were expressed in Sf9 cells (Sigma), 36 mg prot/ml (Bradford). […] Inhibition of NOS was determined by measuring the formation of L-[3H] citrulline from L-[3H] arginine. […] Stop buffer:100 mM Hepes, pH 5.5, 3 mM EDTA, 3 mM EGTA. Enzyme and inhibitor were pre-incubated for 35 min in the presence of NADPH before addition of arginine to initiate the reaction.

[2] = target: Nitric oxide synthase (endothelial, human recombinant) eNOS (Homo sapiens, UniProt P29474); assay: Human eNOS enzyme assay ([3H]L-arginine to [3H]L-citrulline); details: read-out: heNOS IC50
Nitric oxide synthase (endothelial, human recombinant) eNOS, sequence (P29474 2-1203): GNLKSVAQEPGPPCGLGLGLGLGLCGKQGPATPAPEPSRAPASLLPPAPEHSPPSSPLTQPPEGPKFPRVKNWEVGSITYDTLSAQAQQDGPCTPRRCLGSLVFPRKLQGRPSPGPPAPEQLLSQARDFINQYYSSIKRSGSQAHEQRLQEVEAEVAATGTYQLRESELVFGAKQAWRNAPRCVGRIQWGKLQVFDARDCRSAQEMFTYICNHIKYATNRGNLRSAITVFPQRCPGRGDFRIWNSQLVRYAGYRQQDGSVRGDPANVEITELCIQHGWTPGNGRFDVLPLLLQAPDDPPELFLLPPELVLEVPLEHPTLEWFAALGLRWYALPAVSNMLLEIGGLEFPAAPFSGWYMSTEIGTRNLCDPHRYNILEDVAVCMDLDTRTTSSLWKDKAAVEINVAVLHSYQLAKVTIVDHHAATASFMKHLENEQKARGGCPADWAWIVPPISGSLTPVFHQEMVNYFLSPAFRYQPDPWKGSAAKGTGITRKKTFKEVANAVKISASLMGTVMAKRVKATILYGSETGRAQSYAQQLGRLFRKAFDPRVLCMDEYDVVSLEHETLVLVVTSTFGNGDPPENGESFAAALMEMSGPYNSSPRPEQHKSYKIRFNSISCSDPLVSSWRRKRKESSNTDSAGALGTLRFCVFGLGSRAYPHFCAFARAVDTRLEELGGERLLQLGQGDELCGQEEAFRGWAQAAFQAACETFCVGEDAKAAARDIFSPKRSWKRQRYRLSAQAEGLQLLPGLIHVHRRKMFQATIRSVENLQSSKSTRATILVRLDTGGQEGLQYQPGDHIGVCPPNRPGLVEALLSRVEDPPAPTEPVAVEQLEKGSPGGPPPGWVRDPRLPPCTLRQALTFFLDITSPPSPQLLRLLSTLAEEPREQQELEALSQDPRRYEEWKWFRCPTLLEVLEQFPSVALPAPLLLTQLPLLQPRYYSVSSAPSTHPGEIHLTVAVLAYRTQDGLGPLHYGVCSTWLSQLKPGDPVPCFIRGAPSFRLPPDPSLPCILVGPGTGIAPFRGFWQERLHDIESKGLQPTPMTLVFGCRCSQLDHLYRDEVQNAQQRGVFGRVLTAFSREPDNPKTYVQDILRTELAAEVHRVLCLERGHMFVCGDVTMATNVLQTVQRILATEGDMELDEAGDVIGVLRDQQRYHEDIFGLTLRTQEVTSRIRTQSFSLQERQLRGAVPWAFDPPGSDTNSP

[3] = target: Recombinant human inducible NOS (iNOS) (Homo sapiens, UniProt P35228); assay: Human iNOS enzyme assay, radiometric; details: read-out: hiNOS IC50
Recombinant human inducible NOS (iNOS), sequence (P35228 whole entry): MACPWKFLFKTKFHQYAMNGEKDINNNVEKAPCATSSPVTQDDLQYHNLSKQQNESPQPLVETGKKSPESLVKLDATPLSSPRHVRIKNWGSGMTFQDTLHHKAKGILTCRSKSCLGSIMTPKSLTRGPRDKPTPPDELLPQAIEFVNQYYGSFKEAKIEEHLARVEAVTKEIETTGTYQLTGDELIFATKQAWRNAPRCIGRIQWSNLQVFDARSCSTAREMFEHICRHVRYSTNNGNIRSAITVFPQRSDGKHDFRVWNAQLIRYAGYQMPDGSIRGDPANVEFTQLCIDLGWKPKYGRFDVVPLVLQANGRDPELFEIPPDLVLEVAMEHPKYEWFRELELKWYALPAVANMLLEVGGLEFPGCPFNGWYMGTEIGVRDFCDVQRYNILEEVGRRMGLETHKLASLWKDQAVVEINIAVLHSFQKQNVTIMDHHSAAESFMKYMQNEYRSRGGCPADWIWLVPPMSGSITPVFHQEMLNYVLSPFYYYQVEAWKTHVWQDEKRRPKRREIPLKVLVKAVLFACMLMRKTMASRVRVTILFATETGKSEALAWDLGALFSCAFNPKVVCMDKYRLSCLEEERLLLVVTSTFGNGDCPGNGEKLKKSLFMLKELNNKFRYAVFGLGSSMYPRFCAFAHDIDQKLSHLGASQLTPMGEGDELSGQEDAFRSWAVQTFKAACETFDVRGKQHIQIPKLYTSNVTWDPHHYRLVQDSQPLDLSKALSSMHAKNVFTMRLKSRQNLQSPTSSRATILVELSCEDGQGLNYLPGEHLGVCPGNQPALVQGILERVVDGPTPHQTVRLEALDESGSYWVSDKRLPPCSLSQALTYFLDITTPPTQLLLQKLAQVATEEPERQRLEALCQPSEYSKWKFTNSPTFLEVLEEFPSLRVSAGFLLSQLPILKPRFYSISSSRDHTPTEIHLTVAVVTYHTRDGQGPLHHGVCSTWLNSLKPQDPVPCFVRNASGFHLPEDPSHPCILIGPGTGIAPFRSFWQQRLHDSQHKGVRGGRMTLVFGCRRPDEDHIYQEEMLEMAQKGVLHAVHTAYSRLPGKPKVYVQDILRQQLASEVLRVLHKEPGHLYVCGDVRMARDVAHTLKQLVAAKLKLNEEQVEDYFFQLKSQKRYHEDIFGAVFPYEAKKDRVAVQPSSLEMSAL

nNOS (Rat) = nNOS (Rat) (Rattus norvegicus, UniProt P29476); assay: nNOS (Rat) enzyme assay; details: for pIC50: read-out: nNOS IC50 (rodent data in parentheses); for Selectivity eNOS/nNOS (rodent data in parentheses): rodent enzymes
Procedure: as §1, with “EGTA.” for “EGTA. Enzyme and inhibitor were pre-incubated for 35 min in the presence of NADPH before addition of arginine to initiate the reaction.”

[4] = human recombinant nNOS, values without parentheses
[5] = human recombinant eNOS, values without parentheses
[6] = human recombinant iNOS, values without parentheses
[7] = rat nNOS, values in parentheses

| Selectivity eNOS/nNOS [1] | pIC50 [1, 4] | pIC50 (eNOS (Rat)) | pIC50 [2, 5] | pIC50 [3, 6] | pIC50 (nNOS (Rat); [7]) | pIC50 [1] | pIC50 [2] | SMILES | pIC50 (iNOS (Mouse)) | pIC50 [3] | pIC50 (nNOS (Rat)) | Selectivity eNOS/nNOS (rodent data in parentheses) (nNOS (Rat); values in parentheses) |
| --- | --- | --- | --- | --- | --- | --- | --- | --- | --- | --- | --- | --- |
| 203 | 7.05 | 5.35 | 4.74 | 4.47 | 7.06 |  |  | CN1CCC(N2CCCc3cc(NC(=N)c4cccs4)ccc32)C1 (single isomer, unassigned) [Example 56, N-(1-(1-Methylpyrrolidin-3-yl)-1,2,3,4-tetrahydroquinolin-6-yl)thiophene-2-carboximidamide] |  |  |  |  |
| 622 | 6.49 | < 4.00 | 3.70 | 4.39 | 6.30 |  |  | CN1CCC(N2CCCc3cc(NC(=N)c4cccs4)ccc32)C1 (single isomer, unassigned) [Example 57, N-(1-(1-Methylpyrrolidin-3-yl)-1,2,3,4-tetrahydroquinolin-6-yl)thiophene-2-carboximidamide] |  |  |  |  |
|  | 6.51 | 5.04 | 4.65 |  | 6.55 |  |  | N=C(Nc1ccc2c(c1)CCCN2C1CCNC1)c1cccs1 (single isomer, unassigned; (-)) [Example 65, (−)-N-(1-(pyrrolidin-3-yl)-1,2,3,4-tetrahydroquinolin-6-yl)thiophene-2-carboximidamide dihydrochloride] | 5.12 |  |  |  |
| 115 | 6.51 | < 4.00 | 4.44 |  | 5.72 |  |  | Cl.Cl.N=C(Nc1ccc2c(c1)CCCN2CCN1CCCC1)c1cccs1 [Example 12, N-(1-(2-(pyrrolidin-1-yl)ethyl)-1,2,3,4-tetrahydroquinolin-6-yl)thiophene-2-carboximidamide dihydrochloride] | < 4.00 |  |  |  |
|  |  | < 4.00 |  | 4.81 and 5.16 | 6.82 | 6.60 | 4.63 | N=C(Nc1ccc2c(c1)CCCN2C1CCNC1)c1cccs1 (centres unmarked) [Example 29, N-(1-(Pyrrolidin-3-yl)-1,2,3,4-tetrahydroquinolin-6-yl)thiophene-2-carboximidamide dihydrochloride] | < 4.00 |  |  |  |
|  |  |  |  | 5.31 |  | 6.44 | 4.56 | CN1CCC(N2CCCc3cc(NC(=N)c4cccs4)ccc32)C1 (centres unmarked) [Example 35, N-(1-(1-Methylpyrrolidin-3-yl)-1,2,3,4-tetrahydroquinolin-6-yl)thiophene-2-carboximidamide] |  |  |  |  |
| 14.8 | 5.00 |  | 3.83 | 5.09 |  |  |  | N=C(Nc1ccc2c(c1)CCCC(=O)N2CCN1CCCCC1)c1cccs1 [Example 38, N-(2-Oxo-1-(2-(piperidin-1-yl)ethyl)-2,3,4,5-tetrahydro-1H-benzo[b]azepin-7-yl)thiophene-2-carboximidamide] |  |  |  |  |
|  |  |  |  |  |  | 5.53 | 4.70 | CN1CCC(N2CCCCc3cc(NC(=N)c4cccs4)ccc32)CC1 [Example 39, N-(1-(1-Methylpiperidin-4-yl)-2,3,4,5-tetrahydro-1H-benzo[b]azepin-7-yl)thiophene-2-carboximidamide] |  | 5.87 |  |  |
|  | 5.48 |  |  | 5.49 |  |  | 3.71 | CN(C)CCN1C(=O)CCc2cc(NC(=N)c3cccs3)cc(F)c21 [Example 41, N-(1-(2-(Dimethylamino)ethyl)-8-fluoro-2-oxo-1,2,3,4-tetrahydroquinolin-6-yl)thiophene-2-carboximidamide] |  |  |  |  |
| 152 | 6.74 |  | 4.56 | 5.15 |  |  |  | N=C(Nc1ccc2c(c1)C(C1CCNC1)C(=O)N2)c1cccs1 (centres unmarked) [Example 43, N-(2-Oxo-3-(pyrrolidin-3-yl)indolin-5-yl)thiophene-2-carboximidamide] |  |  |  |  |
| 135 | 6.41 | < 4.00 | 4.28 | 4.78 | 6.36 |  |  | CCNCCN1CCCc2cc(NC(=N)c3cccs3)ccc21 [Example 60, N-(1-(2-(Ethylamino)ethyl)-1,2,3,4-tetrahydroquinolin-6-yl)thiophene-2-carboximidamide] |  |  |  | (>227) |

Further lines, the molecule ahead of its results:

| SMILES | Selectivity eNOS/nNOS [1] | pIC50 [1, 4] | pIC50 (eNOS (Rat)) | pIC50 [2, 5] | pIC50 [3, 6] | pIC50 (nNOS (Rat); [7]) | pIC50 [1] | pIC50 [2] | pIC50 (iNOS (Mouse)) | pIC50 [3] | pIC50 (nNOS (Rat)) | Selectivity eNOS/nNOS (rodent data in parentheses) (nNOS (Rat); values in parentheses) |
| --- | --- | --- | --- | --- | --- | --- | --- | --- | --- | --- | --- | --- |
| CN1CCCC1CCN1CCCc2cc(NC(=N)c3cccs3)ccc21 (single isomer, unassigned) [Example 24, N-(1-(2-(1-Methylpyrrolidin-2-yl)ethyl)-1,2,3,4-tetrahydroquinolin-6-yl)thiophene-2-carboximidamide] | 91.7 | 6.77 | 4.66 | 4.81 |  |  |  |  | < 4.00 | 4.48 | 6.92 | (183) |
| N=C(Nc1ccc2c(c1)CCCN2C1CCNC1)c1cccs1 (single isomer, unassigned; (+)) [Example 66, (+)-N-(1-(pyrrolidin-3-yl)-1,2,3,4-tetrahydroquinolin-6-yl)thiophene-2-carboximidamide dihydrochloride] |  | 8.00 |  | 4.85 |  | 7.00 |  |  | 5.54 |  |  |  |
| N=C(Nc1ccc2c(c1)CCC(=O)N2CCN1CCCCC1)c1cccs1 [Example 1, N-(2-oxo-1-(2-(piperidin-1-yl)ethyl)-1,2,3,4-tetrahydroquinolin-6-yl)thiophene-2-carboximidamide] |  |  | 4.28 |  | 4.41 | 7.66 | 6.11 | 4.60 | 5.07 |  |  |  |
| CN1CCCC1CCN1CCCc2cc(NC(=N)c3cccs3)ccc21 (centres unmarked) [Example 14, N-(1-(2-(1-methylpyrrolidin-2-yl)ethyl)-1,2,3,4-tetrahydroquinolin-6-yl)thiophene-2-carboximidamide] | 137 |  | 4.46 | 4.76 |  |  |  |  | < 4.00 | < 4.00 | 6.77 | (206) |
| N=C(Nc1ccc2c(c1)CCCCN2CCN1CCCC1)c1cccs1 [Example 27, N-(1-(2-(Pyrrolidin-1-yl)ethyl)-2,3,4,5-tetrahydro-1H-benzo[b]azepin-7-yl)thiophene-2-carboximidamide] | 138 | 6.46 | 4.38 | 4.31 |  | 7.04 |  |  | < 4.00 | 4.26 |  | (523) |
| N=C(Nc1ccc2c(c1)CCCCN2CCN1CCCCC1)c1cccs1 [Example 40, N-(1-(2-(Piperidin-1-yl)ethyl)-2,3,4,5-tetrahydro-1H-benzo[b]azepin-7-yl)thiophene-2-carboximidamide] |  | 5.72 |  |  | < 4.00 |  |  | 4.25 |  |  |  |  |
| CN(C)CCN1CCCc2cc(NC(=N)c3cccs3)cc(F)c21 [Example 42, N-(1-(2-(Dimethylamino)ethyl)-8-fluoro-1,2,3,4-tetrahydroquinolin-6-yl)thiophene-2-carboximidamide] |  | 7.05 |  |  | < 4.00 |  |  | 4.61 |  |  |  |  |
| N=C(Nc1ccc2c(c1)CCCCN2C1CCNC1)c1cccs1 (centres unmarked) [Example 48, N-(1-(Pyrrolidin-3-yl)-2,3,4,5-tetrahydro-1H-benzo[b]azepin-7-yl)thiophene-2-carboximidamide] |  |  |  |  | 6.21 |  | 6.48 | 4.12 |  |  |  |  |
| CN1CCCC1CCN1CCCc2cc(NC(=N)c3cccs3)cc(F)c21.Cl.Cl (centres unmarked) [Example 55, N-(8-Fluoro-1-(2-(1-methylpyrrolidin-2-yl)ethyl)-1,2,3,4-tetrahydroquinolin-6-yl)thiophene-2-carboximidamide dihydrochloride] | 181 | 7.10 |  | 4.84 | < 4.00 |  |  |  |  |  |  |  |
| N=C(Nc1ccc2c(c1)CCCCN2C1CCNCC1)c1cccs1 [Example 58, N-(1-(piperidin-4-yl)-2,3,4,5-tetrahydro-1H-benzo[b]azepin-7-yl)thiophene-2-carboximidamide] |  | 5.64 |  |  | < 4.00 |  |  | 4.18 |  |  |  |  |
| CN(C)CCCN1CCCc2cc(NC(=N)c3cccs3)ccc21 [Example 59, N-(1-(3-(Dimethylamino)propyl)-1,2,3,4-tetrahydroquinolin-6-yl)thiophene-2-carboximidamide] |  | 6.57 |  |  | 4.46 |  |  | 4.65 |  |  |  |  |
| CN(CCO)CCN1CCCc2cc(NC(=N)c3cccs3)ccc21 [Example 62, N-(1-(2-((2-Hydroxyethyl)(methyl)amino)ethyl)-1,2,3,4-tetrahydroquinolin-6-yl)thiophene-2-carboximidamide] | 492 | 6.89 |  | 4.19 |  | 6.03 |  |  | 5.15 |  |  |  |
